Values of other authors in PMC8861878 (The Journal of pharmacy and pharmacology, 2020).

Tested on: opioid receptor
Settings: cited from earlier work

In the case of `CN1CC[C@]23c4c5ccc(O)c4O[C@H]2[C@@H](O[C@@H]2O[C@H](C(=O)O)[C@@H](O)[C@H](O)[C@H]2O)C=C[C@H]3[C@H]1C5` [M6G, morphine-6-glucuronide], the “affinity with opioid receptor relative to morphine” value is listed as 100 times.
